Measured values: patent US20250122223A1, “HETEROCYCLIC COMPOUNDS AS UBIQUITIN SPECIFIC PROTEASE 7 INHIBITORS” (ALMAC DISCOVERY LIMITED, priority 2022, published 2025)
Where two headings read alike, the source gives them in different places.

Target: USP7 (Homo sapiens (Human), UniProt Q93009)
Assay: USP7 fluorescence polarisation (FP) assay with ubiquitin-Lys-TAMRA substrate
Format: biochemical
Conditions: biochemical inhibition
[1] = read-out: USP7 IC50 activity (Table 3a, classes)
[2] = unit not given in Table 3b (Table 1 and key of Table 3a use μM), read-out: USP7 IC50 activity (Table 3b)

Sequence of USP7 (Q93009 whole entry): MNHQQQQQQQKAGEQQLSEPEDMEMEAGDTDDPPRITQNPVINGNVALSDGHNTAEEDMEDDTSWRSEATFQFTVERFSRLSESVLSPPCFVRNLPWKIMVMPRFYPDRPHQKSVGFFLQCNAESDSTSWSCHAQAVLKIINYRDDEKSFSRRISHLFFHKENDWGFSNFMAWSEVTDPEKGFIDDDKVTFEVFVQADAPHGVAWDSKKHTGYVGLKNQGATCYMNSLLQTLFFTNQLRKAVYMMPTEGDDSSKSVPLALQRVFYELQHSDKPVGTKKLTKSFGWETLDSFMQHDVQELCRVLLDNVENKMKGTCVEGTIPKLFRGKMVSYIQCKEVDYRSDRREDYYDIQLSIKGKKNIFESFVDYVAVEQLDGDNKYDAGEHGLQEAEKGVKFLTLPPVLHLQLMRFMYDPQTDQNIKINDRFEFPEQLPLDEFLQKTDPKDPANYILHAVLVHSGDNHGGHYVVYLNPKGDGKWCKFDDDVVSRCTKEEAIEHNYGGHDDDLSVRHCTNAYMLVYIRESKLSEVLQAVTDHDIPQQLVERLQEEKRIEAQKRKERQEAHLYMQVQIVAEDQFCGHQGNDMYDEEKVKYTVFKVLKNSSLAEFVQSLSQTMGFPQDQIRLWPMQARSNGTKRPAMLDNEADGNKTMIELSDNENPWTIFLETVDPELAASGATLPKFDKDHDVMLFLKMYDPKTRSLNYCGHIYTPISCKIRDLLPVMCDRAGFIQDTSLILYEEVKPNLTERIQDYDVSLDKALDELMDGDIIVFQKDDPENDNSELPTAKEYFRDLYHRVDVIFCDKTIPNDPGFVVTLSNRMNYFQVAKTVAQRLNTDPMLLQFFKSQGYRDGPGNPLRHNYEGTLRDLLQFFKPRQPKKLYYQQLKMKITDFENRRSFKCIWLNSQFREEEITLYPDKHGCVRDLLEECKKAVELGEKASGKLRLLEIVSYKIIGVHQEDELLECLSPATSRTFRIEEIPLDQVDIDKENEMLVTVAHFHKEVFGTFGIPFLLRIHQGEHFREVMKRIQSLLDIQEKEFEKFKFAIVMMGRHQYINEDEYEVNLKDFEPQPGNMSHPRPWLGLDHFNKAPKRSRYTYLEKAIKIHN

C[C@H]1CN[C@H](c2ccc(-n3c(Cl)cc4c(=O)n(CC5(O)CCN(C(=O)c6cccc(F)c6)CC5)cnc43)cc2)CO1 [Example 38, 6-Chloro-3-((1-(3-fluorobenzoyl)-4-hydroxypiperidin-4-yl)methyl)-7-(4-((3R,6S)-6-methylmorpholin-3-yl)phenyl)-3,7-dihydro-4H-pyrrolo[2,3-d]pyrimidin-4-one]
IC50 [1]: 0.25 to 2 µM | IC50 [2]: 0.302 µM

C[C@H]1CN[C@H](c2ccc(-n3c(Cl)cc4c(=O)n(CC5(O)CCN(C(=O)c6cccc(F)c6F)CC5)cnc43)cc2)CO1 [Example 39, 6-Chloro-3-((1-(2,3-difluorobenzoyl)-4-hydroxypiperidin-4-yl)methyl)-7-(4-((3R,6S)-6-methylmorpholin-3-yl)phenyl)-3,7-dihydro-4H-pyrrolo[2,3-d]pyrimidin-4-one]
IC50 [1]: 0.25 to 2 µM | IC50 [2]: 1.15 µM

C[C@H]1CN[C@H](c2ccc(-n3c(Cl)cc4c(=O)n(CC5(O)CCN(C(=O)C6(C7CC7)CC6)CC5)cnc43)cc2)CO1 [Example 42, 3-((1-([1,1′-Bi(cyclopropane)]-1-carbonyl)-4-hydroxypiperidin-4-yl)methyl)-6-chloro-7-(4-((3R,6S)-6-methylmorpholin-3-yl)phenyl)-3,7-dihydro-4H-pyrrolo[2,3-d]pyrimidin-4-one]
IC50 [1]: < 0.1 µM | IC50 [2]: 0.091 µM

CC[C@H]1CN[C@H](c2ccc(-n3c(Cl)cc4c(=O)n(CC5(O)CCN(C(=O)c6ccc(F)cc6)CC5)cnc43)cc2)CO1 [Example 45, 6-Chloro-7-(4-((3R,6S)-6-ethylmorpholin-3-yl)phenyl)-3-((1-(4-fluorobenzoyl)-4-hydroxypiperidin-4-yl)methyl)-3,7-dihydro-4H-pyrrolo[2,3-d]pyrimidin-4-one]
IC50 [1]: 0.1 to 0.25 µM | IC50 [2]: 0.176 µM

CC[C@H]1CN[C@H](c2ccc(-n3c(Cl)cc4c(=O)n(CC5(O)CCN(C(=O)c6ccc(Cl)cc6)CC5)cnc43)cc2)CO1 [Example 46, 6-Chloro-3-((1-(4-chlorobenzoyl)-4-hydroxypiperidin-4-yl)methyl)-7-(4-((3R,6S)-6-ethylmorpholin-3-yl)phenyl)-3,7-dihydro-4H-pyrrolo[2,3-d]pyrimidin-4-one]
IC50 [1]: 0.1 to 0.25 µM | IC50 [2]: 0.162 µM

Cc1cc(-n2c(Cl)cc3c(=O)n(CC4(O)CCN(C(=O)c5ccc(F)cc5)CC4)cnc32)ccc1[C@H]1CO[C@H](C)CN1 [Example 47, 6-Chloro-3-((1-(4-fluorobenzoyl)-4-hydroxypiperidin-4-yl)methyl)-7-(3-methyl-4-((3S,6R)-6-methylmorpholin-3-yl)phenyl)-3,7-dihydro-4H-pyrrolo[2,3-d]pyrimidin-4-one]
IC50 [1]: < 0.1 µM | IC50 [2]: 0.091 µM

O=C(N1CCC(O)(Cn2cnc3c(cc(Cl)n3-c3ccc([C@@H]4NC[C@@H]5CC[C@H]4O5)cc3)c2=O)CC1)C1(C2CC2)CC1 [Example 49, 7-(4-((1R,2S,5S)-8-Oxa-3-azabicyclo[3.2.1]octan-2-yl)phenyl)-3-((1-([1,1′-bi(cyclopropane)]-1-carbonyl)-4-hydroxypiperidin-4-yl)methyl)-6-chloro-3,7-dihydro-4H-pyrrolo[2,3-d]pyrimidin-4-one]
IC50 [1]: 0.1 to 0.25 µM | IC50 [2]: 0.223 µM

Cc1cc(-n2c(Cl)cc3c(=O)n(CC4(O)CCN(C(=O)c5ccc(Cl)cc5F)CC4)cnc32)ccc1[C@H]1CO[C@H](C)CN1 [Example 50, 6-Chloro-3-((1-(4-chloro-2-fluorobenzoyl)-4-hydroxypiperidin-4-yl)methyl)-7-(3-methyl-4-((3S,6R)-6-methylmorpholin-3-yl)phenyl)-3,7-dihydro-4H-pyrrolo[2,3-d]pyrimidin-4-one]
IC50 [1]: 0.1 to 0.25 µM | IC50 [2]: 0.164 µM

Cc1cc(-n2c(Cl)cc3c(=O)n(CC4(O)CCN(C(=O)c5cccc(Cl)c5)CC4)cnc32)ccc1[C@H]1CO[C@H](C)CN1 [Example 51, 6-Chloro-3-((1-(3-chlorobenzoyl)-4-hydroxypiperidin-4-yl)methyl)-7-(3-methyl-4-((3S,6R)-6-methylmorpholin-3-yl)phenyl)-3,7-dihydro-4H-pyrrolo[2,3-d]pyrimidin-4-one]
IC50 [1]: < 0.1 µM | IC50 [2]: 0.258 µM

Cc1cc(-n2c(Cl)cc3c(=O)n(CC4(O)CCN(C(=O)c5ccccc5Cl)CC4)cnc32)ccc1[C@H]1CO[C@H](C)CN1 [Example 52, 6-Chloro-3-((1-(2-chlorobenzoyl)-4-hydroxypiperidin-4-yl)methyl)-7-(3-methyl-4-((3S,6R)-6-methylmorpholin-3-yl)phenyl)-3,7-dihydro-4H-pyrrolo[2,3-d]pyrimidin-4-one]
IC50 [1]: 0.1 to 0.25 µM | IC50 [2]: 0.179 µM

O=C(c1ccc(Cl)cc1)N1CCC(O)(Cn2cnc3c(cc(Cl)n3-c3ccc(C4COC5CCCCC5N4)cc3)c2=O)CC1 (stereo not drawn) [Example 53, 6-Chloro-3-((1-(4-chlorobenzoyl)-4-hydroxypiperidin-4-yl)methyl)-7-(4-(octahydro-2H-benzo[b][1,4]oxazin-3-yl)phenyl)-3,7-dihydro-4H-pyrrolo[2,3-d]pyrimidin-4-one]
IC50 [1]: 0.25 to 2 µM | IC50 [2]: 0.264 µM

O=C(c1ccc(Cl)cc1)N1CCC(O)(Cn2cnc3c(cc(Cl)n3-c3ccc(C4COC5CCCC5N4)cc3)c2=O)CC1 (stereo not drawn) [Example 54, 6-Chloro-3-((1-(4-chlorobenzoyl)-4-hydroxypiperidin-4-yl)methyl)-7-(4-(octahydrocyclopenta[b][1,4]oxazin-3-yl)phenyl)-3,7-dihydro-4H-pyrrolo[2,3-d]pyrimidin-4-one]
IC50 [1]: 0.1 to 0.25 µM | IC50 [2]: 0.151 µM

Cc1ccc(C(=O)N2CCC(O)(Cn3cnc4c(cc(Cl)n4-c4ccc([C@H]5CO[C@H](C)CN5)c(C)c4)c3=O)CC2)cc1 [Example 55]
IC50 [1]: 0.1 to 0.25 µM

Cc1cc(-n2c(Cl)cc3c(=O)n(CC4(O)CCN(C(=O)c5ccc(C(F)(F)F)cc5)CC4)cnc32)ccc1[C@H]1CO[C@H](C)CN1 [Example 56, 6-Chloro-3-((4-hydroxy-1-(4-(trifluoromethyl)benzol)piperidin-4-yl)methyl)-7-(3-methyl-4-((3S,6R)-6-methylmorpholin-3-yl)phenyl)-3,7-dihydro-4H-pyrrolo[2,3-d]pyrimidin-4-one]
IC50 [1]: 0.1 to 0.25 µM | IC50 [2]: 0.113 µM

Cc1ccc(C(=O)N2CCC(O)(Cn3cnc4c(cc(Cl)n4-c4ccc([C@H]5CO[C@H](C)CN5)c(C)c4)c3=O)CC2)c(Cl)c1 [Example 57, 6-Chloro-3-((1-(2-chloro-4-methylbenzoyl)-4-hydroxypiperidin-4-yl)methyl)-7-(3-methyl-4-((3S,6R)-6-methylmorpholin-3-yl)phenyl)-3,7-dihydro-4H-pyrrolo[2,3-d]pyrimidin-4-one]
IC50 [1]: < 0.1 µM | IC50 [2]: 0.084 µM

Cc1ccc(C(=O)N2CCC(O)(Cn3cnc4c(cc(Cl)n4-c4ccc([C@H]5CO[C@H](C)CN5)c(C)c4)c3=O)CC2)c(C)c1 [Example 58, 6-Chloro-3-((1-(2,4-dimethylbenzoyl)-4-hydroxypiperidin-4-yl)methyl)-7-(3-methyl-4-((3S,6R)-6-methylmorpholin-3-yl)phenyl)-3,7-dihydro-4H-pyrrolo[2,3-d]pyrimidin-4-one]
IC50 [1]: 0.25 to 2 µM | IC50 [2]: 0.414 µM

Cc1ccc(C(=O)N2CCC(O)(Cn3cnc4c(cc(Cl)n4-c4ccc([C@@H]5CO[C@@H](C)CN5)cc4)c3=O)CC2)c(C)c1 [Example 59, 6-Chloro-3-((1-(2,4-dimethylbenzoyl)-4-hydroxypiperidin-4-yl)methyl)-7-(4-((3R,6S)-6-methylmorpholin-3-yl)phenyl)-3,7-dihydro-4H-pyrrolo[2,3-d]pyrimidin-4-one]
IC50 [1]: 0.25 to 2 µM | IC50 [2]: 0.545 µM
